Where a SMILES comes first, the peptide text is derived from it. [ ]: non-standard residue; d: D form.
Test system: spleen cell subsets (cell surface antigens)
Experiment: In vivo/ex vivo immunophenotyping in the spleen, mice treated 4 consecutive days
Set-up: species or system C57BL/6 mice
Description: C57BL.backslash.6 mice are treated with 0, 50, 100, 200, and 300 mg/kg of drug (in saline) for 4 consecutive days. Blood is taken by cardiac puncture on day 5, and the lymphocytes are isolated from spleen in the following manner:
The spleen is aseptically removed and mashed by pressing against a steel strainer with a rubber plunger. The cell suspension is separated from the clumps by letting them settle at the bottom of the tube. The cell suspension is then separated on a Lymphocyte M layer and the interface is recovered and resuspended in media.
1. Immunophenotyping (blood and spleen)
Cell immunophenotyping is performed on blood and spleen. The following cell surface antigens are analyzed:
CD4 (T helper/inducer, binds class II-restricted T cells);
CD8 (cytotoxic T cells, CTL adhesion);
MAC-1 (monocyte/macrophage);
NK (natural killer cells);
CD45 (all leukocytes, protein tyrosine phosphatase).

NCCCC[C@@H](N)C(=O)N[C@@H](CC(N)=O)C(=O)N1CCC[C@H]1C(=O)N[C@@H](Cc1ccc(O)cc1)C(=O)O [PEPTIDE #5, H-(D-Lys)-Asn-Pro-Tyr-OH] (H-[dK]NPY-OH)
CD4+ CD8+ cell subset, relative percentage, MEAN (50 mg/kg, first assay): 0.58
CD4+ CD8- cell subset, relative percentage, MEAN (50 mg/kg, first assay): 33.05
CD4+ CD11b+ cell subset, relative percentage, MEAN (50 mg/kg, first assay): 0.83
CD4+ CD11b- cell subset, relative percentage, MEAN (50 mg/kg, first assay): 23.88
CD4- CD8+ cell subset, relative percentage, MEAN (50 mg/kg, first assay): 5.73
CD4- CD8- cell subset, relative percentage, MEAN (50 mg/kg, first assay): 60.65
CD4- CD11b+ cell subset, relative percentage, MEAN (50 mg/kg, first assay): 3.63
CD4- CD11b- cell subset, relative percentage, MEAN (50 mg/kg, first assay): 71.73
CD45+ CD4+ cell subset, relative percentage, MEAN (50 mg/kg, first assay): 21.43
CD45+ CD4- cell subset, relative percentage, MEAN (50 mg/kg, first assay): 55.25
CD45+ CD8+ cell subset, relative percentage, MEAN (50 mg/kg, first assay): 5.38
CD45+ CD8- cell subset, relative percentage, MEAN (50 mg/kg, first assay): 66.00
CD45- CD4+ cell subset, relative percentage, MEAN (50 mg/kg, first assay): 13.28
CD45- CD4- cell subset, relative percentage, MEAN (50 mg/kg, first assay): 10.03
CD45- CD8+ cell subset, relative percentage, MEAN (50 mg/kg, first assay): 0.63
CD45- CD8- cell subset, relative percentage, MEAN (50 mg/kg, first assay): 28.05
Ly5(B) cell subset, relative percentage, MEAN (50 mg/kg, first assay): 57.85
NK+ CD3+ cell subset, relative percentage, MEAN (50 mg/kg, first assay): 1.50
NK+ CD3- cell subset, relative percentage, MEAN (50 mg/kg, first assay): 3.78
NK- CD3+ cell subset, relative percentage, MEAN (50 mg/kg, first assay): 38.13
NK- CD3- cell subset, relative percentage, MEAN (50 mg/kg, first assay): 56.68
TCR(T) cell subset, relative percentage, MEAN (50 mg/kg, first assay): 40.23
CD4+ CD8+ cell subset, relative percentage, MEAN (50 mg/kg, second assay): 0.63
CD4+ CD8- cell subset, relative percentage, MEAN (50 mg/kg, second assay): 36.53
CD4+ CD11b+ cell subset, relative percentage, MEAN (50 mg/kg, second assay): 0.38
CD4+ CD11b- cell subset, relative percentage, MEAN (50 mg/kg, second assay): 14.85
CD4- CD8+ cell subset, relative percentage, MEAN (50 mg/kg, second assay): 5.85
CD4- CD8- cell subset, relative percentage, MEAN (50 mg/kg, second assay): 57.03
CD4- CD11b+ cell subset, relative percentage, MEAN (50 mg/kg, second assay): 3.60
CD4- CD11b- cell subset, relative percentage, MEAN (50 mg/kg, second assay): 81.15
CD45+ CD4+ cell subset, relative percentage, MEAN (50 mg/kg, second assay): 29.23
CD45+ CD4- cell subset, relative percentage, MEAN (50 mg/kg, second assay): 49.85
CD45+ CD8+ cell subset, relative percentage, MEAN (50 mg/kg, second assay): 6.03
CD45+ CD8- cell subset, relative percentage, MEAN (50 mg/kg, second assay): 75.15
CD45- CD4+ cell subset, relative percentage, MEAN (50 mg/kg, second assay): 8.83
CD45- CD4- cell subset, relative percentage, MEAN (50 mg/kg, second assay): 12.05
CD45- CD8+ cell subset, relative percentage, MEAN (50 mg/kg, second assay): 0.18
CD45- CD8- cell subset, relative percentage, MEAN (50 mg/kg, second assay): 18.65
Ly5(B) cell subset, relative percentage, MEAN (50 mg/kg, second assay): 41.20
NK+ CD3+ cell subset, relative percentage, MEAN (50 mg/kg, second assay): 2.18
NK+ CD3- cell subset, relative percentage, MEAN (50 mg/kg, second assay): 3.83
NK- CD3+ cell subset, relative percentage, MEAN (50 mg/kg, second assay): 39.60
NK- CD3- cell subset, relative percentage, MEAN (50 mg/kg, second assay): 54.38
TCR(T) cell subset, relative percentage, MEAN (50 mg/kg, second assay): 51.58
CD4+ CD8+ cell subset, relative percentage, MEAN (100 mg/kg, first assay): 0.70
CD4+ CD8- cell subset, relative percentage, MEAN (100 mg/kg, first assay): 36.85
CD4+ CD11b+ cell subset, relative percentage, MEAN (100 mg/kg, first assay): 0.95
CD4+ CD11b- cell subset, relative percentage, MEAN (100 mg/kg, first assay): 23.73
CD4- CD8+ cell subset, relative percentage, MEAN (100 mg/kg, first assay): 7.03
CD4- CD8- cell subset, relative percentage, MEAN (100 mg/kg, first assay): 55.50
CD4- CD11b+ cell subset, relative percentage, MEAN (100 mg/kg, first assay): 4.10
CD4- CD11b- cell subset, relative percentage, MEAN (100 mg/kg, first assay): 71.23
CD45+ CD4+ cell subset, relative percentage, MEAN (100 mg/kg, first assay): 23.25
CD45+ CD4- cell subset, relative percentage, MEAN (100 mg/kg, first assay): 52.10
CD45+ CD8+ cell subset, relative percentage, MEAN (100 mg/kg, first assay): 6.43
CD45+ CD8- cell subset, relative percentage, MEAN (100 mg/kg, first assay): 63.43
CD45- CD4+ cell subset, relative percentage, MEAN (100 mg/kg, first assay): 15.35
CD45- CD4- cell subset, relative percentage, MEAN (100 mg/kg, first assay): 9.30
CD45- CD8+ cell subset, relative percentage, MEAN (100 mg/kg, first assay): 0.83
CD45- CD8- cell subset, relative percentage, MEAN (100 mg/kg, first assay): 29.30
Ly5(B) cell subset, relative percentage, MEAN (100 mg/kg, first assay): 56.75
NK+ CD3+ cell subset, relative percentage, MEAN (100 mg/kg, first assay): 1.83
NK+ CD3- cell subset, relative percentage, MEAN (100 mg/kg, first assay): 3.88
NK- CD3+ cell subset, relative percentage, MEAN (100 mg/kg, first assay): 38.38
NK- CD3- cell subset, relative percentage, MEAN (100 mg/kg, first assay): 55.95
TCR(T) cell subset, relative percentage, MEAN (100 mg/kg, first assay): 39.83

Reference: patent US5980913A, “Peptides having immunomodulatory activity” (Biochem Pharma, Inc., priority 1994, dated 1999)
